# Experimental data published in article doi:10.1101/2020.05.11.20064584v1 (medRxiv, 2020).
# Like-named read-outs stand apart in the source and are kept apart here.
# Experiments:
# [1] = Rat pharmacokinetics, blood LL-37 by ELISA after gavage; type: in vivo, SD rats; details: male, SD, serum, po
# [2] = Acute and subchronic toxicity test in rats; type: in vivo; details: SD rats, oral gavage, 100 times of the expected clinical dose
# [3] = system: rVSV-SARS; details: 2 h, 10 ug/ml
# [4] = 6.0E10/kg·day by gavage, end of two weeks, n=5, Mean ± SEM
structure (smiles),measurement,setting,value
CC[C@H](C)[C@H](NC(=O)[C@H](CCCCN)NC(=O)[C@H](CCC(=O)O)NC(=O)[C@H](CCCCN)NC(=O)[C@H](CO)NC(=O)[C@H](CCCCN)NC(=O)[C@H](CCCNC(=N)N)NC(=O)[C@H](Cc1ccccc1)NC(=O)[C@H](Cc1ccccc1)NC(=O)[C@H](CC(=O)O)NC(=O)CNC(=O)[C@H](CC(C)C)NC(=O)[C@@H](N)CC(C)C)C(=O)NCC(=O)N[C@@H](CCCCN)C(=O)N[C@@H](CCC(=O)O)C(=O)N[C@@H](Cc1ccccc1)C(=O)N[C@@H](CCCCN)C(=O)N[C@@H](CCCNC(=N)N)C(=O)N[C@H](C(=O)N[C@H](C(=O)N[C@@H](CCC(N)=O)C(=O)N[C@@H](CCCNC(=N)N)C(=O)N[C@H](C(=O)N[C@@H](CCCCN)C(=O)N[C@@H](CC(=O)O)C(=O)N[C@@H](Cc1ccccc1)C(=O)N[C@@H](CC(C)C)C(=O)N[C@@H](CCCNC(=N)N)C(=O)N[C@@H](CC(N)=O)C(=O)N[C@@H](CC(C)C)C(=O)N[C@H](C(=O)N1CCC[C@H]1C(=O)N[C@@H](CCCNC(=N)N)C(=O)N[C@H](C(=O)N[C@@H](CCC(=O)O)C(=O)N[C@@H](CO)C(=O)O)[C@@H](C)O)C(C)C)[C@@H](C)CC)C(C)C)[C@@H](C)CC [LL-37],level at 1 h,[1],0.7 ng/mL
same,level at 2 h,[1],1.65 ng/mL
same,level at 4 h,[1],0.92 ng/mL
same,level at 6 h,[1],0.14 ng/mL
same,LD50,[2],more than 6 × 10^10 CFU/kg/ day
same,"maximum inhibition rate, rVSV-SARS",[3],85%
same,CK,[4]; female SD rats,715.56±343.35 U/L
same,TC,[4]; female SD rats,1.30 ± 0.20 mM
same,TG,[4]; female SD rats,0.33 ± 0.07 mM
same,CK,[4]; male SD rats,661.02±93.22 U/L
same,TG,[4]; male SD rats,0.29 ± 0.03 mM
